Laboratory results published in article PMC8021118, “Shared recognition of citrullinated tenascin-C peptides by T and B cells in rheumatoid arthritis” (JCI Insight, 2021).
Values joined by “and” are separate entries in the source; they are usually repeats but may differ in a detail not shown here. Identical values can stand only once. Where a SMILES comes first, the peptide text is derived from it. Where no end group is shown, it is not given here. [ ]: non-standard residue; d: D form. Cit = NC(=O)NCCC[C@H](N)C(=O)O

What was measured:
[1] = tested on: CD4+ memory T cells in peripheral blood; test: Ex vivo detection of peptide-specific memory CD4+ T cells by multiplex HLA class II tetramer staining; type: cell-based, human; conditions: for Frequencies of peptide-specific memory CD4+ T cells: mean ± SEM, SEM
[2] = tested on: CD4+ T cells in PBMC from HLA-DRB1*04:01+ subjects; test: In vitro expansion of peptide-specific CD4+ T cells from PBMC and HLA class II tetramer staining; type: cell-based, human; conditions: for Responders (% in RA): RA subjects with positive in vitro response (>0.1% of CD4+ T cells tetramer+) of total tested, 10 μg/mL peptide, 14 days, n = 14, TNC44 and TNC59 n = 6; for Immunogenicity: Supplemental Table 1, ability to elicit an immune response in vitro (tetramer staining after expansion)
Excerpt: TNC is a large protein (2110 amino acids in length) composed of an N-terminal assembly domain, 14.5 epidermal growth factor–like repeats (EGF-L), 8 constant fibronectin type III–like repeats (FNIII), and an additional 9 alternatively spliced FNIII elements, and a C-terminal fibrinogen-like globe (FBG) ([16]). Using a previously described algorithm ([9], [24]), we scanned the entire length of the TNC monomer and identified 64 arg-containing peptides with motifs that would predict to permit binding to HLA-DRB1*04:01 in either their noncitrullinated native form, citrullinated form, or both. Based on these predictions, we synthesized the citrullinated versions of these peptides and tested their ability to bind HLA-DRB1*04:01 and to elicit CD4^+ T cell expansion in vitro. Of the peptides synthesized, 8 cit-TNC peptides bound to HLA-DRB1*04:01 with moderate to high affinity (Table 1). Among these, cit-TNC17, cit-TNC22, cit-TNC45, cit-TNC50, and cit-TNC56 were determined to be the most immunogenic, based on their ability to drive epitope-specific T cell expansion, as measured by HLA class II tetramer (Tmr) staining of peripheral blood mononuclear cells (PBMC) from HLA-DRB1*04:01^+ subjects following 2 weeks of in vitro expansion (Table 1 and Supplemental Figure 1; supplemental material available online with this article; https://doi.org/10.1172/jci.insight.145217DS1).
Recombinant HLA-DRB1*04:01 protein was produced by the BRI Tetramer Core as previously described ([56]). Soluble HLA-DRB1*04:01 monomer was purified from insect cell culture supernatants and biotinylated at a sequence-specific site using biotin ligase (Avidity) prior to dialysis into phosphate storage buffer. The biotinylated monomer was loaded with 0.2 mg/mL of peptide by incubating at 37°C for 72 hours in the presence of 2.5 mg/mL n-octyl β-D-glucopyranoside and 1 mM Pefabloc SC (Sigma-Aldrich). Peptide-loaded monomers were conjugated into Tmrs using fluorescently labeled streptavidin (Invitrogen) for 6–18 hours at room temperature at a molar ratio of 8:1.
Cryopreserved PBMCs from RA and healthy subjects were cultured at 5 × 10^6 cells/well in a 48-well plate in RPMI-1640 + 10% HPS with 10 μg/mL of peptide. IL-2 (Novartis) was added at 325 IU/mL on day 6. On day 14, cells were stained for expression of Tmr-PE, CD25 APC (BD Biosciences), and CD4 FITC (BioLegend) (Supplemental Table 8) and then run on a FACSCanto. The data were analyzed by FlowJo software version 10.

HLA-DRB1*04:01 = HLA-DRB1*04:01 (Homo sapiens, UniProt P01903+P01911, A100K/A169T/F76Y/I96L/K127E/L162R/M171V/N62H/P40V/Q125Y/R42H/S133A/S149N/S66Y/V115G/V209L/W38E); test: Peptide competition binding assay to HLA-DRB1*04:01
[3] = tested on: serum IgG antibodies of RA subjects; test: ELISA for serum antibodies against peptide; type: binding, human; conditions: Cys-flanked ELISA peptides
Protocol: (§1) ELISAs were used to detect antibodies against citrullinated peptides in sera from patients in Autoantibody Cohorts 1 and 2 (Supplemental Table 2). Peptides used in the assay were synthesized by either GenScript or Pepceutical and are described in Supplemental Table 5. The ELISAs were conducted as previously described ([18], [26]). In brief, 96-well Nunc Maxisorp plates were coated with 10 μg/mL peptide in PBS, blocked with 2% BSA, and incubated with sera diluted 1:100. Bound antibodies were detected with an HRP-conjugated anti–human IgG Fc monoclonal antibody (6043HRP, Stratech). A standard curve of positive sera was used to calculate relative antibody titers in arbitrary units (AU) for each sample. The CCP2 ELISA for Autoantibody Cohort 1 was performed as by the manufacturer’s instruction (FCCP600, Axis-Shield). Cross-reactivity to cit-TNC56, cit-TNC17, or cit-TNC5 was analyzed in human sera reactive to cit-TNC56 or cit-TNC17. Sera were diluted 1:100, incubated with 1, 10, and 100 μg/mL of peptides for 2 hours and centrifuged at 10,000g for 10 minutes at room temperature, and the supernatant was added to peptide-coated plates for analysis by ELISA as described above. Positivity was defined by the cut-off of the 98th percentile of HC samples from Autoantibody Cohort 1.

[4] = tested on: anti-cit-TNC antibodies in double-reactive RA sera; test: Cross-reactivity (peptide absorption/inhibition) ELISA; type: binding, human; conditions: for Absorption by the homologous peptide (in words): sera double-reactive for cit-TNC17 and cit-TNC56
Protocol: Sera that were double-reactive with peptides cit-TNC17 or cit-TNC56 and cit-TNC56, cit-TNC17, or cit-TNC5 were diluted 1:100, incubated with 1, 10, and 100 μg/mL of peptides for 2 hours and centrifuged at 10,000g for 10 minutes, and the supernatant then added to peptide-coated plates for analysis by ELISA. […] (B) Limited cross-reactivity between anti–cit-TNC56 and both anti–cit-TNC17 and anti–cit-TNC5. Each panel was run on a separate plate.
as §1

[5] = tested on: Synovial fluid mononuclear cells (SFMC) from HLA-DRB1*04:01 RA patients; test: FluoroSpot cytokine secretion by synovial fluid mononuclear cells stimulated with peptide; type: cell-based, human; conditions: for IFN-γ secretion by SFMC (in words): 20 μg/mL peptide, 48 hours, 3-color FluoroSpot, RA n = 7, 15-mer T cell peptides; for IL-10 production by SFMC (in words) / IL-17 production by SFMC (in words): peptide stimulation 48 hours, three-color fluorospot, RA n=7
[6] = Autoantibody Cohort 1: HLA-DRB1*04:01, CCP+ RA sera (n = 17), diluted 1:100, cut-off 98th percentile of HC
[7] = Autoantibody Cohort 2, CCP+ RA (n = 55)
[8] = Autoantibody Cohort 2, CCP– RA (n = 43)

Molecule	Percentages of subjects with a detectable ex vivo response ([1]; Healthy control subjects (n=7))	Frequencies of peptide-specific memory CD4+ T cells ([1]; Healthy control subjects (n=7))	Percentages of subjects with a detectable ex vivo response ([1]; RA subjects (n=9))	Frequencies of peptide-specific memory CD4+ T cells ([1]; RA subjects (n=9))	Responders (% in RA) [2]	Immunogenicity [2]	EC50 (HLA-DRB1*04:01)	Percentage of subjects seropositive for antibodies to peptide [3, 6]	IFN-γ secretion by SFMC (in words) [5]	further results
CC(C)C[C@H](NC(=O)[C@H](CCCNC(N)=O)NC(=O)[C@H](Cc1ccc(O)cc1)NC(=O)[C@H](CCCNC(N)=O)NC(=O)[C@H](CC(=O)O)NC(=O)[C@@H](N)Cc1ccccc1)C(=O)N[C@@H](CC(N)=O)C(=O)N[C@@H](Cc1ccc(O)cc1)C(=O)N[C@@H](CO)C(=O)N[C@@H](CC(C)C)C(=O)N1CCC[C@H]1C(=O)N[C@H](C(=O)NCC(=O)N[C@@H](CCC(N)=O)C(=O)N[C@@H](Cc1c[nH]c2ccccc12)C(=O)O)[C@@H](C)O [TNC22] (H-FD[Cit]Y[Cit]LNYSLPTGQW-OH)	71%	3.0±1.2 /million memory CD4+ T cells	56%	3.8±1.9 /million memory CD4+ T cells	46%	Yes	0.7 µM			
CC(C)C[C@H](NC(=O)[C@H](CCCNC(N)=O)NC(=O)[C@H](Cc1ccccc1)NC(=O)CNC(=O)[C@H](CC(=O)O)NC(=O)[C@@H]1CCCN1)C(=O)N[C@@H](CO)C(=O)N[C@@H](Cc1c[nH]c2ccccc12)C(=O)N[C@H](C(=O)N[C@@H](C)C(=O)N[C@@H](CC(=O)O)C(=O)N[C@@H](CCC(=O)O)C(=O)NCC(=O)N[C@H](C(=O)N[C@@H](Cc1ccccc1)C(=O)O)C(C)C)[C@@H](C)O [TNC45] (H-PDGF[Cit]LSWTADEGVF-OH)	71%	2.6±1.0 /million memory CD4+ T cells	100%	22.6±6.4 /million memory CD4+ T cells	50%	Yes	17.1 µM			
CC[C@H](C)[C@H](NC(=O)[C@H](CCCNC(N)=O)NC(=O)[C@H](Cc1ccccc1)NC(=O)[C@H](CO)NC(=O)[C@H](CCC(=O)O)NC(=O)[C@@H](N)C(C)C)C(=O)N[C@H](C(=O)N[C@@H](Cc1ccc(O)cc1)C(=O)N[C@H](C(=O)N1CCC[C@H]1C(=O)N[C@H](C(=O)N[C@H](C(=O)NCC(=O)NCC(=O)N[C@H](C(=O)O)[C@@H](C)O)[C@@H](C)O)[C@@H](C)CC)C(C)C)[C@@H](C)O [TNC50] (H-VESF[Cit]ITYVPITGGT-OH)	71%	1.5±0.6 /million memory CD4+ T cells	100%	9.6±3.1 /million memory CD4+ T cells	50%	Yes	1 µM			
CEHSIQFAEMKL[Cit]PSNF[Cit]NLEG[Cit][Cit]KRC (cysteine pairing not given here) [cit-TNC5, previously published cit-TNC5 peptide, positive control in antibody ELISA, reference compound]								47%		
CEYEVSLIS[Cit][Cit]GDMSSNPAC [cit-TNC17, Cys-flanked citrullinated TNC17 peptide used for detection of antibodies by ELISA]								100%	elicited IFN-γ secretion by SFMC	Cross-reactivity with cit-TNC5 (in words) ([4]; double-reactive sera): no cross-reactivity; Absorption by the homologous peptide (in words) [4]: efficient; maximum inhibition ([4]; serum 6, cit-TNC17 versus cit-TNC56, sera 1:100, 1, 10 and 100 μg/mL peptide, 2 hours): 22%; IL-10 production by SFMC (in words) [5]: produced; Percentage of subjects seropositive for antibodies to peptide [3, 7]: 63.6% and 64%; Percentage of subjects seropositive for antibodies to peptide [3, 8]: 2.3%
CPTAQVESF[Cit]ITYVPITGGC [cit-TNC50, Cys-flanked citrullinated TNC50 peptide used in ELISA]										IL-17 production by SFMC (in words) [5]: produced
CQGQYEL[Cit]VDL[Cit]DHGETAFC [cit-TNC56, Cys-flanked citrullinated TNC56 peptide used in ELISA]								53%	elicited IFN-γ secretion by SFMC	Absorption by the homologous peptide (in words) [4]: efficient; maximum inhibition ([4]; serum 2, cit-TNC56 versus cit-TNC17, sera 1:100, 1, 10 and 100 μg/mL peptide, 2 hours): 24.8%; maximum inhibition ([4]; serum 2, cross-reactivity between cit-TNC56 and cit-TNC5): 38.7%; maximum inhibition ([4]; serum 6, citTNC56 versus cit-TNC17, sera 1:100, 1, 10 and 100 μg/mL peptide, 2 hours): 43%; IL-17 production by SFMC (in words) [5]: produced; Percentage of subjects seropositive for antibodies to peptide [3, 7]: 45.5%; Percentage of subjects seropositive for antibodies to peptide [3, 8]: 11.6%
CTPLAKFD[Cit]Y[Cit]LNYSLPTGC [cit-TNC22, Cys-flanked citrullinated TNC22 peptide used in ELISA]								35%	elicited IFN-γ secretion by SFMC	IL-10 production by SFMC (in words) [5]: produced
CVSDATPDGF[Cit]LSWTADEGC [cit-TNC45, Cys-flanked citrullinated TNC45 peptide used in ELISA]								29%	elicited IFN-γ secretion by SFMC	
